The source made the active and inactive calls. No cut-off for these calls is given here.
Tests used:
SH-SY5Y [1] = assay: Neuroprotective activity against CdCl2-induced toxicity in human SH-SY5Y cells assessed as cell viability at 25 uM preincubated for 2 hrs followed by CdCl2 challenge and measured after 24 hrs by CCK8 assay (reference value: 46.2 +/- 1.7%); format: functional; conditions: read-out: Activity
SH-SY5Y [2] = assay: Neuroprotective activity against CdCl2-induced endoplasmic reticulum stress-mediated apoptosis in human SH-SY5Y cells assessed as downregulation of cleaved caspase-3 protein expression at 25 uM preincubated for 2 hrs followed by CdCl2 challenge and measured after 24 hrs by Western blot analysis; format: functional, cell-based
SH-SY5Y [3] = assay: Neuroprotective activity against CdCl2-induced apoptosis in human SH-SY5Y cells assessed as apoptosis rate at 25 uM preincubated for 2 hrs followed by CdCl2 challenge and measured after 24 hrs by annexin V/propidium iodide staining-based flow cytometric analysis (reference value: 73.2%); format: functional
SH-SY5Y [4] = assay: Induction of apoptosis in human SH-SY5Y cells at 25 uM after 24 hrs by annexin V/propidium iodide staining-based flow cytometric analysis relative to control; format: cell-based
SH-SY5Y [5] = assay: Neuroprotective activity against CdCl2-induced endoplasmic reticulum stress-mediated apoptosis in human SH-SY5Y cells assessed as downregulation of CHOP protein expression at 25 uM preincubated for 2 hrs followed by CdCl2 challenge and measured after 24 hrs by Western blot analysis; format: functional, cell-based
SH-SY5Y [6] = assay: Neuroprotective activity against CdCl2-induced endoplasmic reticulum stress-mediated apoptosis in human SH-SY5Y cells assessed as downregulation of cleaved caspase-12 protein expression at 25 uM preincubated for 2 hrs followed by CdCl2 challenge and measured after 24 hrs by Western blot analysis; format: functional, cell-based
SH-SY5Y [7] = assay: Neuroprotective activity against CdCl2-induced endoplasmic reticulum stress-mediated apoptosis in human SH-SY5Y cells assessed as downregulation of GRP78 protein expression at 25 uM preincubated for 2 hrs followed by CdCl2 challenge and measured after 24 hrs by Western blot analysis; format: functional, cell-based

O=C1Nc2ccc(Cl)cc2CN2C(=O)CC[C@H]12
viability at 25 µM (SH-SY5Y [1]): 56.2%

O=C1Nc2ccccc2CN2C(=O)CC[C@@H]12
viability at 25 µM (SH-SY5Y [1]): 52.2%

Cc1ccc(-c2ccc3c(c2)CN2C(=O)CC[C@H]2C(=O)N3)cc1
viability at 25 µM (SH-SY5Y [1]): 33.9%

COc1cc2c(cc1OCc1ccccc1)CN1C(=O)CC[C@@H]1C(=O)N2
viability at 25 µM (SH-SY5Y [1]): 60.4%

O=C1Nc2ccccc2CN2C(=O)CC[C@H]12
viability at 25 µM (SH-SY5Y [1]): 48.4%

O=C1[C@@H]2CCC(=O)N2Cc2cc(Br)ccc2N1CCCCN1CCN(c2ncccn2)CC1
viability at 25 µM (SH-SY5Y [1]): 63.1%

O=C1[C@@H]2CCC(=O)N2Cc2ccccc2N1CCCCN1CCN(c2ncccn2)CC1
viability at 25 µM (SH-SY5Y [1]): 59.2%

O=C1[C@@H]2CCC(=O)N2Cc2cc(Br)ccc2N1CCCCN1CCN(c2ccccn2)CC1
viability at 25 µM (SH-SY5Y [1]): 62.4%

O=C1Nc2ccc(Cl)cc2CN2C(=O)CC[C@@H]12
viability at 25 µM (SH-SY5Y [1]): 61.4%

COc1cc2c(cc1OCc1ccccc1)CN1C(=O)CC[C@H]1C(=O)N2CCCCN1CCN(c2ncccn2)CC1
viability at 25 µM (SH-SY5Y [1]): 62.2%

COc1cc2c(cc1O)CN1C(=O)CC[C@H]1C(=O)N2
viability at 25 µM (SH-SY5Y [1]): 55.7%

O=C1Nc2ccc(Br)cc2CN2C(=O)CC[C@@H]12
viability at 25 µM (SH-SY5Y [1]): 66.1%

COc1cc2c(cc1O)CN1C(=O)CC[C@@H]1C(=O)N2
viability at 25 µM (SH-SY5Y [1]): 56.8%

Cc1ccc(-c2ccc3c(c2)CN2C(=O)CC[C@@H]2C(=O)N3)cc1
viability at 25 µM (SH-SY5Y [1]): 36.2%

O=C1[C@@H]2CCC(=O)N2Cc2ccccc2N1CCCCN1CCN(c2ccccn2)CC1
viability at 25 µM (SH-SY5Y [1]): 66.2%

O=C1[C@@H]2CCC(=O)N2Cc2ccccc2N1CCCN1CCN(c2ncccn2)CC1
viability at 25 µM (SH-SY5Y [1]): 51.3%

COc1cc2c(cc1OCc1ccccc1)CN1C(=O)CC[C@H]1C(=O)N2
viability at 25 µM (SH-SY5Y [1]): 66.2%

O=C1Nc2cc3c(cc2CN2C(=O)CC[C@@H]12)OCO3
viability at 25 µM (SH-SY5Y [1]): 59.2%

COc1cc2c(cc1OCc1ccccc1)CN1C(=O)CC[C@H]1C(=O)N2CCCCN1CCN(c2ccccn2)CC1
viability at 25 µM (SH-SY5Y [1]): 68.6% | Activity (SH-SY5Y [2]): Active | Activity (SH-SY5Y [3]): 18.7% | Activity (SH-SY5Y [4]): 4.2 to 5% | Activity (SH-SY5Y [5]): Active | Activity (SH-SY5Y [6]): Active | Activity (SH-SY5Y [7]): Active

Cc1ccccc1-c1ccc2c(c1)CN1C(=O)CC[C@H]1C(=O)N2
viability at 25 µM (SH-SY5Y [1]): 39.8%

O=C1[C@@H]2CCC(=O)N2Cc2ccccc2N1CCCN1CCN(c2ccccn2)CC1
viability at 25 µM (SH-SY5Y [1]): 56.7%

O=C1Nc2ccc(Br)cc2CN2C(=O)CC[C@H]12
viability at 25 µM (SH-SY5Y [1]): 60.4%

O=C1[C@@H]2CCC(=O)N2Cc2ccccc2N1CCCCCN1CCN(c2ccccn2)CC1
viability at 25 µM (SH-SY5Y [1]): 59.2%

O=C1[C@@H]2CCC(=O)N2Cc2ccccc2N1CCCCCN1CCN(c2ncccn2)CC1
viability at 25 µM (SH-SY5Y [1]): 51.4%

O=C1Nc2cc3c(cc2CN2C(=O)CC[C@H]12)OCO3
viability at 25 µM (SH-SY5Y [1]): 56.6%

Cc1ccccc1-c1ccc2c(c1)CN1C(=O)CC[C@@H]1C(=O)N2
viability at 25 µM (SH-SY5Y [1]): 42.3%

— ChEMBL document CHEMBL4229570, “Pyrrolo[2,1-c][1,4] benzodiazepine-3,11-diones protect SHSY-5Y cells from Cd-induced apoptosis involving suppression of endoplasmic reticulum stress” (Bioorg Med Chem, 2018)
